Measured values taken from patent publication US20200222400A1, “METHODS FOR THE TREATMENT OF NEUROLOGICAL DISORDERS” (Yumanity Therapeutics, Inc., priority 2019, published 2020).

Assays:
SCD = experiment: Fatty acid saturation in guinea pig brain after oral SCD inhibitors (GC-FID of FAME); format: in vivo; details: oral 25 mg/kg twice daily 5 days, vs vehicle
Experimental: FIG. 19A-FIG. 19F are a series of graphs showing an evaluation of fatty acid saturation in guinea pig brain after oral administration of SCD inhibitors. Guinea pigs were dosed orally with SCD inhibitors twice daily (every 12 hours) for 5 days. Guinea pigs were dosed with vehicle, SCD5 Selective Inhibitor 1 (“SCD5-SI-1”), SCD5 Selective Inhibitor 2 (“SCD5-SI-2”), CAY10566 (“CAY”) or SCD1/SCD5 Inhibitor 1 (“SCD1/5-1”), all compounds at 25 mg/kg with a volume-matched vehicle control. Four hours after the last dose on day 5, guinea pigs were sacrificed, and brains were removed after whole-body saline perfusion. […] Samples were evaluated on a gas chromatograph with a flame ionization detector (GC-FID) to quantify a comprehensive panel of fatty acid species. Brain samples were evaluated for levels of 16 (FIG. 19A) and 18 (FIG. 19B) carbon-containing fatty acids (C16, C18 respectively), and the desaturation index (DI) was calculated by taking the ratio of desaturated to saturated fatty acid for each species. […] Brain samples were evaluated for the relative levels of the positional isomers of C16, including C16:1 n7 palmitoleic acid (FIG. 19C) or C16:1 n9 monounsaturated fatty acids (FIG. 19D). […] Data was analyzed by one-way ANOVA with Tukey's post-hoc test to account for multiple comparisons. ** p<0.01, *** p<0.005, **** p<0.0001. […]

[1] = tested on: human iPSC-derived neurons harboring the alpha-synuclein A53T mutation; experiment: Neuron survival assay, iPSC-derived neurons harboring alpha-synuclein A53T mutation; format: cell-based; details: 100 nM and 30 nM, relative to DMSO in A53T neurons
Experimental: Human control and patient-derived trans-differentiated neurons were transfected with an RFP reporter driven by the human MAP2 promoter (MAP2-mApple) following the protocol for rat primary neurons as described above with the following exceptions: lipofection was carried out for approximately 1 h, and the final media replacement was with BrainPhys™ media supplemented with BDNF, GNDF, cAMP, ascorbic acid, and laminin.
Transfected neuronal cultures were imaged at 12-24 h intervals for the indicated number of days by robotic microscopy. Fluorescence images were acquired with a Nikon Eclipse Ti microscope equipped with a motorized stage, 20× extra-long working distance (ELWD) objective, and an Andor Zyla cMOS camera. During image acquisition, microplates were enclosed in an on-stage environmental chamber controlling temperature, CO2, and humidity (Okolab). Images were processed and analyzed with custom-made scripts in R and ImageJ software. The lifetimes of individual neurons were determined by tracking fluorescently-labeled neurons in ImageJ. Neuronal death was determined to occur upon incidence of RFP signal loss or rupture of cell body. Cox proportional hazards analysis was used to generate cumulative hazard plots and determine the risk of neuron death. Log-rank test was used to determine statistical significance of survival curve divergence between neuron cohorts.

[2] = tested on: rat cortical neurons transfected with alpha-synuclein A53T; experiment: Neurite degeneration assay; format: cell-based
Experimental: Rat primary cortical neurons cultured in 96-well plates (Greiner Bio-One) were co-transfected with a fluorescence reporter plasmid (encoding mKate2) and empty or alpha-synuclein-A53T overexpression plasmids by lipofection at 5-6 div (days in vitro). LIPOFECTAMINE® 2000 transfection reagent (Thermo Fisher) (0.5 μl/well) was diluted in NEUROBASAL® media (Thermo Fisher) and incubated for 5-10 min. The LIPOFECTAMINE®/NEUROBASAL® mixture was then added dropwise to a plasmid cocktail diluted in NEUROBASAL® media, and incubated for approximately 40 min. During this time, conditioned media on the neurons was replaced with media containing 1× kynurenic Acid (Sigma-Aldrich) in NEUROBASAL® media (NBKY). LIPOFECTAMINE®/DNA complex solutions were subsequently added dropwise to neurons in the NBKY media in the 96-well plate. Lipofection was carried out for 30-40 min in a standard cell culture incubator (37° C., 5% CO2). Neurons were then washed with NEUROBASAL® media, and 50% conditioned/50% fresh NEUROBASAL® media containing B-27 supplement and GlutaMax™ (Thermo Fisher) (NBM) was applied to the cultures.
Transfected rat cortical neuron cultures were treated with DMSO or CAY10566 compound 4-6 h post-transfection. […] Neurite lengths of transfected neurons were tracked by an RFP reporter, mKate2, and measured by NeuroTrack™ Software Module (Essen Bioscience). […]

Cc1nnc(-c2ccc(N3CCC(Oc4cc(F)ccc4Cl)CC3)nn2)o1 [CAY10566]
C16 desaturation index (DI), brain (SCD): decreased the C16 DI | risk of neuron death [1]: significantly reduced | neurite degeneration at highest concentrations ([2]; 10 nM and 3 nM): complete rescue | neurite degeneration ([2]; titration, tracked every 6 h for 7 d, relative to DMSO): concentration-dependent decrease in neurite degeneration
